Measurements reported in ChEMBL document CHEMBL1201862, “PubChem BioAssay data set” (2004).
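48-hour exposure; five concentrations; linearly interpolated endpoints. Abbreviation: GI50, concentration required for 50% inhibition of growth.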 Active and inactive are the calls of the source. No stated cut-off is given here; in the data, active = GI50 up to about 1.1 µM and inactive = higher.

How the values were obtained:
Assay in all cases: growth of human tumour cells (NCI), 48 h
786-0 = system: 786-0
A498 = system: A498
A549 = system: A549
ACHN = system: ACHN
CAKI-1 = system: CAKI-1
CCRF-CEM = system: CCRF-CEM
COLO 205 = system: COLO 205
DLD-1 = system: DLD-1
DMS-273 = system: DMS-273
DU-145 = system: DU-145
EKVX = system: EKVX
HCC 2998 = system: HCC 2998
HCT-116 = system: HCT-116
HCT-15 = system: HCT-15
HL-60 = system: HL-60
HOP-18 = system: HOP-18
HOP-62 = system: HOP-62
HOP-92 = system: HOP-92
HT-29 = system: HT-29
Hs-578T = system: Hs-578T
IGROV-1 = system: IGROV-1
K562 = system: K562
KM-20L2 = system: KM-20L2
KM12 = system: KM12
LOX IMVI = system: LOX IMVI
LXFL 529 = system: LXFL 529
M14 = system: M14
M19-MEL = system: M19-MEL
MCF7 = system: MCF7
MDA-MB-231 = system: MDA-MB-231
MDA-MB-435 = system: MDA-MB-435
MDA-N = system: MDA-N
MOLT-4 = system: MOLT-4
Malme-3M = system: Malme-3M
NCI-H226 = system: NCI-H226
NCI-H23 = system: NCI-H23
NCI-H460 = system: NCI-H460
NCI-H522 = system: NCI-H522
NCI/ADR-RES = system: NCI/ADR-RES
OVCAR-3 = system: OVCAR-3
OVCAR-4 = system: OVCAR-4
OVCAR-5 = system: OVCAR-5
OVCAR-8 = system: OVCAR-8
PC-3 = system: PC-3
RPMI-8226 = system: RPMI-8226
RXF 393 = system: RXF 393
RXF 631 = system: RXF 631
SF-268 = system: SF-268
SF-295 = system: SF-295
SF-539 = system: SF-539
SK-MEL-28 = system: SK-MEL-28
SK-MEL-2 = system: SK-MEL-2
SK-MEL-5 = system: SK-MEL-5
SK-OV-3 = system: SK-OV-3
SN12C = system: SN12C
SNB-19 = system: SNB-19
SNB-75 = system: SNB-75
SNB-78 = system: SNB-78
SR = system: SR
SW-620 = system: SW-620
T47D = system: T47D
TK-10 = system: TK-10
U-251 = system: U-251
UACC-257 = system: UACC-257
UACC-62 = system: UACC-62
UO-31 = system: UO-31
DMS-114 = system: DMS-114
XF498 = system: XF498

Compound: CCCCC(=O)OC[n+]1ccc2c(C)c3[nH]c4ccccc4c3c(C)c2c1
- GI50 (786-0): 298 nM (active)
- GI50 (A498): 681 nM (active)
- GI50 (A549): 267 nM (active)
- GI50 (ACHN): 187 nM (active)
- GI50 (CAKI-1): 1250 nM (inactive)
- GI50 (CCRF-CEM): 43.2 nM (active)
- GI50 (COLO 205): 535 nM (active)
- GI50 (DLD-1): 370 nM (active)
- GI50 (DMS-273): 147 nM (active)
- GI50 (DU-145): 1040 nM (active)
- GI50 (EKVX): 497 nM (active)
- GI50 (HCC 2998): 433 nM (active)
- GI50 (HCT-116): 221 nM (active)
- GI50 (HCT-15): 222 nM
- GI50 (HL-60): 378 nM (active)
- GI50 (HOP-18): 1340 nM (inactive)
- GI50 (HOP-62): 537 nM (active)
- GI50 (HOP-92): 1620 nM (inactive)
- GI50 (HT-29): 460 nM (active)
- GI50 (Hs-578T): 217 nM (active)
- GI50 (IGROV-1): 502 nM (active)
- GI50 (K562): 186 nM (active)
- GI50 (KM-20L2): 687 nM (active)
- GI50 (KM12): 446 nM (active)
- GI50 (LOX IMVI): 493 nM (active)
- GI50 (LXFL 529): 855 nM (active)
- GI50 (M14): 1340 nM (inactive)
- GI50 (M19-MEL): 1070 nM (active)
- GI50 (MCF7): 180 nM (active)
- GI50 (MDA-MB-231): 174 nM (active)
- GI50 (MDA-MB-435): 618 nM (active)
- GI50 (MDA-N): 484 nM (active)
- GI50 (MOLT-4): 77.5 nM (active)
- GI50 (Malme-3M): 1460 nM (inactive)
- GI50 (NCI-H226): 475 nM (active)
- GI50 (NCI-H23): 140 nM (active)
- GI50 (NCI-H460): 27.5 nM (active)
- GI50 (NCI-H522): 773 nM (active)
- GI50 (NCI/ADR-RES): 526 nM (active)
- GI50 (OVCAR-3): 1220 nM (inactive)
- GI50 (OVCAR-4): 1010 nM (active)
- GI50 (OVCAR-5): 525 nM (active)
- GI50 (OVCAR-8): 385 nM (active)
- GI50 (PC-3): 298 nM (active)
- GI50 (RPMI-8226): 195 nM (active)
- GI50 (RXF 393): 297 nM (active)
- GI50 (RXF 631): 1070 nM (active)
- GI50 (SF-268): 460 nM (active)
- GI50 (SF-295): 676 nM (active)
- GI50 (SF-539): 526 nM (active)
- GI50 (SK-MEL-28): 1320 nM (inactive)
- GI50 (SK-MEL-2): 1970 nM (inactive)
- GI50 (SK-MEL-5): 1390 nM (inactive)
- GI50 (SK-OV-3): 740 nM (active)
- GI50 (SN12C): 376 nM (active)
- GI50 (SNB-19): 466 nM (active)
- GI50 (SNB-75): 1280 nM (inactive)
- GI50 (SNB-78): 796 nM (active)
- GI50 (SR): 89.5 nM (active)
- GI50 (SW-620): 359 nM (active)
- GI50 (T47D): 1010 nM (active)
- GI50 (TK-10): 1210 nM (inactive)
- GI50 (U-251): 574 nM (active)
- GI50 (UACC-257): 1430 nM (inactive)
- GI50 (UACC-62): 1260 nM (inactive)
- GI50 (UO-31): 701 nM (active)

Compound: COC(=O)[C@@]1(C(C)CC(=O)O)CCCCC1=O (stereo partly drawn)
- GI50 (786-0): 27000 nM (inactive)
- GI50 (A498): > 100000 nM (inactive)
- GI50 (A549): > 100000 nM (inactive)
- GI50 (ACHN): > 100000 nM (inactive)
- GI50 (CAKI-1): > 100000 nM (inactive)
- GI50 (CCRF-CEM): > 100000 nM (inactive)
- GI50 (COLO 205): 50700 nM (inactive)
- GI50 (DLD-1): > 100000 nM (inactive)
- GI50 (DMS-114): 82800 nM (inactive)
- GI50 (DMS-273): 19900 nM (inactive)
- GI50 (EKVX): > 100000 nM (inactive)
- GI50 (HCC 2998): > 100000 nM (inactive)
- GI50 (HCT-116): > 100000 nM (inactive)
- GI50 (HCT-15): 42600 nM
- GI50 (HL-60): > 100000 nM (inactive)
- GI50 (HOP-18): > 100000 nM (inactive)
- GI50 (HOP-62): > 100000 nM (inactive)
- GI50 (HOP-92): > 100000 nM (inactive)
- GI50 (HT-29): > 100000 nM (inactive)
- GI50 (IGROV-1): > 100000 nM (inactive)
- GI50 (K562): > 100000 nM (inactive)
- GI50 (KM-20L2): > 100000 nM (inactive)
- GI50 (KM12): > 100000 nM (inactive)
- GI50 (LOX IMVI): 93800 nM (inactive)
- GI50 (LXFL 529): > 100000 nM (inactive)
- GI50 (M14): > 100000 nM (inactive)
- GI50 (M19-MEL): > 100000 nM (inactive)
- GI50 (MOLT-4): > 100000 nM (inactive)
- GI50 (Malme-3M): > 100000 nM (inactive)
- GI50 (NCI-H226): > 100000 nM (inactive)
- GI50 (NCI-H23): > 100000 nM (inactive)
- GI50 (NCI-H460): > 100000 nM (inactive)
- GI50 (NCI-H522): > 100000 nM (inactive)
- GI50 (OVCAR-3): > 100000 nM (inactive)
- GI50 (OVCAR-4): > 100000 nM (inactive)
- GI50 (OVCAR-5): > 100000 nM (inactive)
- GI50 (OVCAR-8): > 100000 nM (inactive)
- GI50 (RPMI-8226): 34300 nM (inactive)
- GI50 (RXF 393): > 100000 nM (inactive)
- GI50 (SF-268): > 100000 nM (inactive)
- GI50 (SF-295): > 100000 nM (inactive)
- GI50 (SF-539): > 100000 nM (inactive)
- GI50 (SK-MEL-28): > 100000 nM (inactive)
- GI50 (SK-MEL-2): > 100000 nM (inactive)
- GI50 (SK-MEL-5): > 100000 nM (inactive)
- GI50 (SK-OV-3): > 100000 nM (inactive)
- GI50 (SN12C): > 100000 nM (inactive)
- GI50 (SNB-19): > 100000 nM (inactive)
- GI50 (SNB-75): > 100000 nM (inactive)
- GI50 (SNB-78): > 100000 nM (inactive)
- GI50 (SR): 37800 nM (inactive)
- GI50 (TK-10): > 100000 nM (inactive)
- GI50 (U-251): > 100000 nM (inactive)
- GI50 (UACC-257): > 100000 nM (inactive)
- GI50 (UACC-62): > 100000 nM (inactive)
- GI50 (UO-31): > 100000 nM (inactive)
- GI50 (XF498): > 100000 nM (inactive)
